Reference: publication PMC3428805 (Journal of Medicinal Chemistry, 2012)

Experiments:
K562 cells = test: cells; assay type: cell-based; settings: Homo sapiens, K562, 72 h, read-out: K562 cells, GI50
Kif5a = target: T1, Kif5a (Homo sapiens, UniProt Q12840); test: Kinesin panel, basal and MT-stimulated ATPase, Kif5a; assay type: biochemical; settings: data not shown
T1 sequence (Q12840 1-1032): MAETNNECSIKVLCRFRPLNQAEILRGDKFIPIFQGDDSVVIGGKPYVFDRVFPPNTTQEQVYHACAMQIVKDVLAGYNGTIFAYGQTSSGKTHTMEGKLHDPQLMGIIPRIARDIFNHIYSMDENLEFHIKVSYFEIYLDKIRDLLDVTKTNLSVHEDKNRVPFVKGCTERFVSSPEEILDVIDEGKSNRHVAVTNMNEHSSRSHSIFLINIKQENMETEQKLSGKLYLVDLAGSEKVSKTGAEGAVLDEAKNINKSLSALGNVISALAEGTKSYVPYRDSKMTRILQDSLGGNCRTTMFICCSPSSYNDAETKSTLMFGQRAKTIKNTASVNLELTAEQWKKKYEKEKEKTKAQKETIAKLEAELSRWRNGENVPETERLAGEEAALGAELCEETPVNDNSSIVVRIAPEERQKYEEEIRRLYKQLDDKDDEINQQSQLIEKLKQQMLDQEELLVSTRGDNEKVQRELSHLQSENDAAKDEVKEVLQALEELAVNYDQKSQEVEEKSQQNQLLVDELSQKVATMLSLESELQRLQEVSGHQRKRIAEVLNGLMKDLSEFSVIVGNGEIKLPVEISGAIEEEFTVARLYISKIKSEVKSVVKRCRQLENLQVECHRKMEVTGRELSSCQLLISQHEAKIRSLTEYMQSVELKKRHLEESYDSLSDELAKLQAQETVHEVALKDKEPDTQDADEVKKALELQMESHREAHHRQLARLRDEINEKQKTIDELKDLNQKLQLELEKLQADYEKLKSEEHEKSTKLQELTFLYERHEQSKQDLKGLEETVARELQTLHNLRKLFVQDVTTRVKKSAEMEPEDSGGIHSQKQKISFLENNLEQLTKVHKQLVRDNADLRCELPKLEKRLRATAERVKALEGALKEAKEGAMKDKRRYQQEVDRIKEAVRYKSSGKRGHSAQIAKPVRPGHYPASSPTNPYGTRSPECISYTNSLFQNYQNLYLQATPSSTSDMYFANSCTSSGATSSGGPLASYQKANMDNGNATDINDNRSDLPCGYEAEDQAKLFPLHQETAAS

Kif7 = target: T2, Kif7 (Homo sapiens, UniProt Q2M1P5); test: Kinesin panel, basal and MT-stimulated ATPase, Kif7; assay type: biochemical; settings: data not shown
T2 sequence (Q2M1P5 1-1343): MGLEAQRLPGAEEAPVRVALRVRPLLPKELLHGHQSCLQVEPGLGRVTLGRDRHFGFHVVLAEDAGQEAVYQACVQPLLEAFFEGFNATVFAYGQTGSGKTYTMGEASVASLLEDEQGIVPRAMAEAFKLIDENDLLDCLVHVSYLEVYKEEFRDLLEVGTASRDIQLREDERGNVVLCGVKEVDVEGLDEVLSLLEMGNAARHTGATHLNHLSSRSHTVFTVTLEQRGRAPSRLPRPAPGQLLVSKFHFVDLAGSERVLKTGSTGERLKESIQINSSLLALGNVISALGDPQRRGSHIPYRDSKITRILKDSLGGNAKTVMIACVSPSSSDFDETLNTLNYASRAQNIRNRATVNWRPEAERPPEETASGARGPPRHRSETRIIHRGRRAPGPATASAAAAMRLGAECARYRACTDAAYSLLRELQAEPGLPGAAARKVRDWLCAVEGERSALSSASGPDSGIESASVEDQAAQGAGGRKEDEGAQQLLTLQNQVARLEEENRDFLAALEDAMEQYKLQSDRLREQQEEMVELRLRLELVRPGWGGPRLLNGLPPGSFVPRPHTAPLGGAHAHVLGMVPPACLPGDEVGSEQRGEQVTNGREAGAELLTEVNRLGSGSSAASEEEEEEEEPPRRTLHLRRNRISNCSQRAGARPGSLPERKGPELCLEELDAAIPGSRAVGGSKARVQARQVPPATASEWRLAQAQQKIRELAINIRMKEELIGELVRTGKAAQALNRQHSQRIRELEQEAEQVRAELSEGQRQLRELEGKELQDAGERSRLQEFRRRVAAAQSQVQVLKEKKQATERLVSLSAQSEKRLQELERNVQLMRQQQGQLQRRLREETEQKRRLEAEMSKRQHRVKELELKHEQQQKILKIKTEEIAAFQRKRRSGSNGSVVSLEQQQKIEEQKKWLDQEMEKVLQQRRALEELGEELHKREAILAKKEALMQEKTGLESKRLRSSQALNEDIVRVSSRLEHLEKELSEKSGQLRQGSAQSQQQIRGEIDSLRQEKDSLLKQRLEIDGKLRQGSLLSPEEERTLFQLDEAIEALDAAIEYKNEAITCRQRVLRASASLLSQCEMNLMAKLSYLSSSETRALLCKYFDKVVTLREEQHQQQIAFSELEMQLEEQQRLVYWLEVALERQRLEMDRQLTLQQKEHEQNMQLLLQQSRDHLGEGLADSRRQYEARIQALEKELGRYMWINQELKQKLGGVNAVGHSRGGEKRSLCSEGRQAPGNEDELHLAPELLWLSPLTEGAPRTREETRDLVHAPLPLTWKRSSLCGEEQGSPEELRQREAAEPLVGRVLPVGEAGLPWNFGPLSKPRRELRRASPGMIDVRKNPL

MPP1 = MPP1 (Homo sapiens, UniProt Q96Q89); test: Kinesin panel, basal and MT-stimulated ATPase, MPP1; assay type: biochemical; settings: data not shown
MKLP-2 = target: T3, MKLP-2 (Homo sapiens, UniProt O95235); test: Kinesin panel, basal and MT-stimulated ATPase, MKLP-2; assay type: biochemical; settings: data not shown
T3 sequence (O95235 1-890): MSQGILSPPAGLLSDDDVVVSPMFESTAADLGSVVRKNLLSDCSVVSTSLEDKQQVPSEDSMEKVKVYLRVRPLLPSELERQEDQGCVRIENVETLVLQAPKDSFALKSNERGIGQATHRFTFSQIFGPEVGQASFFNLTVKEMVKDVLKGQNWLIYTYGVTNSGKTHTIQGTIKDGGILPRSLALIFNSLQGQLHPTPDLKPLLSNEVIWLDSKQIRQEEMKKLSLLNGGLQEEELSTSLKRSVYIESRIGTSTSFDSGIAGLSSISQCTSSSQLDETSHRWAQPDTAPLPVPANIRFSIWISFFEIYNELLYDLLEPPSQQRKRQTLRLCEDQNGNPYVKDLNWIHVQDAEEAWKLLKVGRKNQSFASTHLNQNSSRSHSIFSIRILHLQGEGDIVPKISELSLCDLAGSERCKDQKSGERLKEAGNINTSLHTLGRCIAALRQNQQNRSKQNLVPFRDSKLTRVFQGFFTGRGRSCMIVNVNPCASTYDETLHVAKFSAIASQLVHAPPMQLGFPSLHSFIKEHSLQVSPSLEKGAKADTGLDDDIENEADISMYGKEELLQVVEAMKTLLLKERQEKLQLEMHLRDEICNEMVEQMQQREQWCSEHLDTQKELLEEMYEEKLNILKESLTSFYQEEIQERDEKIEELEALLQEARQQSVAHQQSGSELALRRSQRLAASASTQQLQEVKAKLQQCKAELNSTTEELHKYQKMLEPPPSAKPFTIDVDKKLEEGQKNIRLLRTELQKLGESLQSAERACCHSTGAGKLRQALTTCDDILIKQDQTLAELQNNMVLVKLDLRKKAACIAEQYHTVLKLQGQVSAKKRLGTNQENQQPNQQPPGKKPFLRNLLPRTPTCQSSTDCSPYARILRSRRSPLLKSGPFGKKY

CENP-E = CENP-E (Homo sapiens, UniProt Q02224); test: Kinesin panel, basal and MT-stimulated ATPase, CENP-E; assay type: biochemical; settings: data not shown
[1] = Human microsomal stability; settings: human microsomes, 3 µM
[2] = Mouse microsomal stability; settings: mouse microsomes, 3 µM
[3] = Human plasma protein binding, equilibrium dialysis; settings: 50%

Sequence of CENP-E (Q02224 whole entry): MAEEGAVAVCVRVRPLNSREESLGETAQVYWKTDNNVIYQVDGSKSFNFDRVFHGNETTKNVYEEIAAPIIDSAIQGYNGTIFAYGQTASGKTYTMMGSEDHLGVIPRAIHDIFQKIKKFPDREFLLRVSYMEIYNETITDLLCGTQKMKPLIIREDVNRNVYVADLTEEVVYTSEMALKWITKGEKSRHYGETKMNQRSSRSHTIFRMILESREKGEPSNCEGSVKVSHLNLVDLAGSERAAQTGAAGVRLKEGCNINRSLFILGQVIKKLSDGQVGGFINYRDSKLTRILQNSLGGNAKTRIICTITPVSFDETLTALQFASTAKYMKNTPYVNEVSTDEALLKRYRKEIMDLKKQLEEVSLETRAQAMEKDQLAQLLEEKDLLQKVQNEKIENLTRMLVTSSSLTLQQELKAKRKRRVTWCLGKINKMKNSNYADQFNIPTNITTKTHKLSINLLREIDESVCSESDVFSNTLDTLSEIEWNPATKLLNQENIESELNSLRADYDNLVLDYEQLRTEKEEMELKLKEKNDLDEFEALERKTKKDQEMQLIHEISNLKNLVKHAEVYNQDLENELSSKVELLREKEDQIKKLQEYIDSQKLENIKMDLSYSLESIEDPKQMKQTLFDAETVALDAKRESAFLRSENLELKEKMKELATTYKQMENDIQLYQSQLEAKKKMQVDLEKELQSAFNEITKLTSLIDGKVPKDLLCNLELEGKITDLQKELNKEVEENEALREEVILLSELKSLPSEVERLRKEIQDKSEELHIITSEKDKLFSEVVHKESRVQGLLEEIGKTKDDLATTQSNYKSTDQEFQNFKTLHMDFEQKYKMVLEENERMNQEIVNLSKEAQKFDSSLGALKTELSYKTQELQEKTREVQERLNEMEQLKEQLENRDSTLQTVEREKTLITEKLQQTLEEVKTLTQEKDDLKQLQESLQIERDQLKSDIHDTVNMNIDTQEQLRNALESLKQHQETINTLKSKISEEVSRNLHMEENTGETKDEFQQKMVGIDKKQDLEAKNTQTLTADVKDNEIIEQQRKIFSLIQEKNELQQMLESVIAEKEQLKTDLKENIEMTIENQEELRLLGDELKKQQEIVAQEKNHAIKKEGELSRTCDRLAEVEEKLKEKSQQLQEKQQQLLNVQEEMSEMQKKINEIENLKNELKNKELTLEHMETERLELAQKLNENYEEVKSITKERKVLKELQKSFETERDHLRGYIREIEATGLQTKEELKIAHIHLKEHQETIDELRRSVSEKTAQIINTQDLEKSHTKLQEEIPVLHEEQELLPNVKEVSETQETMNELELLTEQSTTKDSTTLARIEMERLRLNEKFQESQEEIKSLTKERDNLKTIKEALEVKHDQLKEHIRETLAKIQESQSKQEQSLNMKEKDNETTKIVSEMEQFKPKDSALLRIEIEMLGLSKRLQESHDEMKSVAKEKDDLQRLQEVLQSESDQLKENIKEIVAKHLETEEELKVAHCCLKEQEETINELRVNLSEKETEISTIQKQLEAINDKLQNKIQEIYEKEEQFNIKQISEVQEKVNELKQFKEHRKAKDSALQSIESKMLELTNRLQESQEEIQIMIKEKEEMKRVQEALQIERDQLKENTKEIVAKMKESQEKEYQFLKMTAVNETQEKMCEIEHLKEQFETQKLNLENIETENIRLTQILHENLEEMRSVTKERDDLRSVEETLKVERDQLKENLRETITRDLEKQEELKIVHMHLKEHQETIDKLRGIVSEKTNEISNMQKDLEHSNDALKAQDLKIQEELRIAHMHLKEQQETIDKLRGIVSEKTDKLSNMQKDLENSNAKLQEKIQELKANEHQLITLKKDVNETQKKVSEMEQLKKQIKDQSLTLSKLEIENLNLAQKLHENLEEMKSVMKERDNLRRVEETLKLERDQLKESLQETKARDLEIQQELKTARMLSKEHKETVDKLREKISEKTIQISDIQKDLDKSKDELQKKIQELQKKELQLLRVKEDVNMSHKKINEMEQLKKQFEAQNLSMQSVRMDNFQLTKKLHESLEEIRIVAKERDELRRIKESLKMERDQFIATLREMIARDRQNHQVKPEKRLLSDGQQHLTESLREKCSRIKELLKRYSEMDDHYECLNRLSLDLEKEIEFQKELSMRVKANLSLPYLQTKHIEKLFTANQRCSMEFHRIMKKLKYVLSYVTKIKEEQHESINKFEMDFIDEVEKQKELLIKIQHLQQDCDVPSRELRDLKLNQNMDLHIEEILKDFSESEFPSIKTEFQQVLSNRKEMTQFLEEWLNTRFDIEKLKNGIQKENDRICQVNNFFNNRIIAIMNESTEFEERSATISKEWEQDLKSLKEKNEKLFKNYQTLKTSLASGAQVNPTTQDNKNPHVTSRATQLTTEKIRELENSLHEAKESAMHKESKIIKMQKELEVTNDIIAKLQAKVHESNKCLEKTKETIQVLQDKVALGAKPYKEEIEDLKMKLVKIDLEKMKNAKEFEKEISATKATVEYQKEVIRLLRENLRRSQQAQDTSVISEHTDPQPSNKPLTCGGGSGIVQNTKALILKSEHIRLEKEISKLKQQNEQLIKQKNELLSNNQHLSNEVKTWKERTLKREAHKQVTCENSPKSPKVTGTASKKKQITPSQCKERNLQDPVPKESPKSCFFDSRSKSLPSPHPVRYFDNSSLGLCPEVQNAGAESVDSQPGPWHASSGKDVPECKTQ
Sequence of MPP1 (Q96Q89 whole entry): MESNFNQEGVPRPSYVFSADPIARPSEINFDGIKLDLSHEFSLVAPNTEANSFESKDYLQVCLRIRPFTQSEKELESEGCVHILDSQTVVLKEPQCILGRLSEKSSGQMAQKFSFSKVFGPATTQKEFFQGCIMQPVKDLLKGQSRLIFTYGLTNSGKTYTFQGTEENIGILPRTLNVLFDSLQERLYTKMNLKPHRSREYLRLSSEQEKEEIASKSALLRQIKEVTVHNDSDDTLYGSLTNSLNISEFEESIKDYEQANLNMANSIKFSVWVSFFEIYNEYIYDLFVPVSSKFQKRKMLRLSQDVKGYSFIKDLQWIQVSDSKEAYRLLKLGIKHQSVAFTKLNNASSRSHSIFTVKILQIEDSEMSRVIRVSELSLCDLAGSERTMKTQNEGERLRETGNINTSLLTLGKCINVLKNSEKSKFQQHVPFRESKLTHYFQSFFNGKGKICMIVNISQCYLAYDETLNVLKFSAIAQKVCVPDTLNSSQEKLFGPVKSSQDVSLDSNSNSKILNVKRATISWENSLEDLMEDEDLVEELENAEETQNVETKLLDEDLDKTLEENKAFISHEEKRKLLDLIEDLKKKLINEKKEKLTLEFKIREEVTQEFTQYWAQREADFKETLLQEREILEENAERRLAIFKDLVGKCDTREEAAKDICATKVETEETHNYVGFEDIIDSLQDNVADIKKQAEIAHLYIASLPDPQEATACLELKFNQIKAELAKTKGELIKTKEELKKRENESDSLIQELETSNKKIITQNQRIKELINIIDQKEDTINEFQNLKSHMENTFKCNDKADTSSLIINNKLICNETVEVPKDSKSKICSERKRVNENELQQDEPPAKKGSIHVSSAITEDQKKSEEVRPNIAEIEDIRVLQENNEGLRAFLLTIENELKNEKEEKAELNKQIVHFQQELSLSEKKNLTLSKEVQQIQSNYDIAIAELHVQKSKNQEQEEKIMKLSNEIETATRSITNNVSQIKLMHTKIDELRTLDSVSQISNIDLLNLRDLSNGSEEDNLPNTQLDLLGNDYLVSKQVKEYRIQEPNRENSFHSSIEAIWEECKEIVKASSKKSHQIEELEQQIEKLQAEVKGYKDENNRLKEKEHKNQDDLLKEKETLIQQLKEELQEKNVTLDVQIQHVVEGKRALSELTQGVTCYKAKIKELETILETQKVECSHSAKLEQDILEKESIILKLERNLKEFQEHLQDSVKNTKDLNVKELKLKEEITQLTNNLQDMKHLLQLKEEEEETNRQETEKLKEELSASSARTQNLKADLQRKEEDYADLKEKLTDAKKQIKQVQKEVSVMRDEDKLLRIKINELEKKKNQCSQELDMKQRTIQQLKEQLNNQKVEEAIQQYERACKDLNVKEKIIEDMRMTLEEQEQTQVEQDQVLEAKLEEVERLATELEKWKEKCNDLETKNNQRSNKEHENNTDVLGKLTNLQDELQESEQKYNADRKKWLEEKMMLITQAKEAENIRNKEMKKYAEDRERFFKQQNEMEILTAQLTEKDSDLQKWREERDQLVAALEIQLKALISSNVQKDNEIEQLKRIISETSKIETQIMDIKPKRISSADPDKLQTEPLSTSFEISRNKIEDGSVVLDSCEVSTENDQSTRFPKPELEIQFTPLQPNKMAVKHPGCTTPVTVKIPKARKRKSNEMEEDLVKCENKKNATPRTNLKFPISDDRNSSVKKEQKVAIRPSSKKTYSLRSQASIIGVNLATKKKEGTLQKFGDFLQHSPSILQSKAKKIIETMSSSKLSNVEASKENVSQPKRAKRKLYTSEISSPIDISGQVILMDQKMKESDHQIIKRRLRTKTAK

Structure (SMILES) | GI50 (K562 cells) | inhibition of basal and MT-stimulated ATPase activities, Kif5a (Kif5a) | inhibition of basal and MT-stimulated ATPase activities, Kif7 (Kif7) | inhibition of basal and MT-stimulated ATPase activities, MPP1 (MPP1) | inhibition of basal and MT-stimulated ATPase activities, MKLP-2 (MKLP-2) | inhibition of basal and MT-stimulated ATPase activities, CENP-E (CENP-E) | turbidimetric solubility pH 7.4 | microsomal stability, Clint, human [1] | microsomal stability, Clint, mice [2] | recovery at 5 µM [3]
Cc1cccc(C(CCC(N)C(=O)O)(c2ccccc2)c2ccccc2)c1 (racemic) [rac-29, 2-Amino-5-(3-methylphenyl)-5,5-diphenylpentanoic acid] | 91 ± 9 nM | did not observe any significant inhibition | did not observe any significant inhibition | did not observe any significant inhibition | did not observe any significant inhibition | did not observe any significant inhibition |  |  |  | 
Cc1cccc(C(CCCN)(c2ccccc2)c2ccccc2)c1 [compound 30, 4-(3-Methylphenyl)-4,4-diphenylbutan-1-amine] |  |  |  |  |  |  | >100, >100, >100 μM | stable | high microsomal clearance | 69.1%
